Experimental data: PubChem BioAssay AID743417 (Broad Institute, 2014)
Inconclusive results are not listed. Calls of active or inactive are those of the source.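 Rule for the calls: active = compounds lowering the luciferase signal with a fitted half-maximal dose at most twice their top valid dose (cut at about 30 µM in these data); inconclusive = flat fits with moderate signal loss, or poor fits; inactive = the rest.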

Test system: Clone20 osteoblast Shn3 3'UTR firefly luciferase, 24 h
Experiment: Shn3 3'UTR reporter inhibitors, dose response, cell-based, Clone20 osteoblasts, luminescence, dry powder, set 2 (AID 743417)

Structure (SMILES) | AC50
CCN(C(=O)c1ccc(C(C)(C)C)cc1)c1nnc(Cn2nnc3ccccc32)s1 | 1.35 µM
CCOc1cc(CNCCc2ccc(S(N)(=O)=O)cc2)ccc1OCc1ccc(Cl)cc1 | 3.87 µM
CCCOC(=O)c1[nH]c2c(c1C)C(=O)CC(c1cc(OC)c(OC)c(OC)c1)C2 (stereo not given) | 1.92 µM
O=C1[C@H]2[C@@H](c3ccc(F)cc3)N3C(=O)N(c4ccccc4)C(=O)[C@@]3(Cc3ccccc3)[C@H]2C(=O)N1C1CCCCC1 | > 70 µM (inactive)
CC1Sc2ccc(S(=O)(=O)N3CCC(C(=O)Nc4cccc(Cl)c4)CC3)cc2NC1=O (stereo not given) | 3.27 µM
Cc1cc(Br)c2c(c1)/C(=C/C(=O)c1cccs1)C(=O)N2 | 19.9 µM
COCCn1c(C)cc(C2=NNC(=NC3CC3)SC2)c1C | < 0.26 µM
C=CCNc1nc(N2CCCCC2)c(C#N)c2c1CN(Cc1ccccc1)CC2 | 16.8 µM
CC(=O)OCCCNc1cc(Sc2ccc(C)cc2)c2nonc2c1[N+](=O)[O-] | 1.1 µM
O=C(CSc1nc(-c2ccco2)cc(C(F)(F)F)n1)Nc1ccc(C(=O)N2CCCCC2)cc1 | 2.87 µM
O=C(c1ccccc1)C(CN1CCCCC1)c1ccccc1 (stereo not given) | 2.41 µM
CS(=O)(=O)N1CCN(c2ccc(NC(=O)c3ccc([N+](=O)[O-])o3)cc2)CC1 | 5.65 µM
Cc1ccc(-n2c(Cl)c(Cl)nc(Cl)c2=O)cc1 | 1.77 µM
CNc1ccccc1C(C)(C)c1cc(-c2cccc(OC)c2)no1 | 1.92 µM
Cc1ccc(NC(=O)C2=C(c3ccccc3)S(=O)(=O)CCS2(=O)=O)cc1 | 0.558 µM
C=C1CC(COc2ccc3c(C)c(Cl)c(=O)oc3c2)(c2ccccc2)OC1=O (stereo not given) | 4.82 µM
COc1cc2nc(N3CCN(c4cc(C)ccc4C)CC3)nc(N)c2cc1OC | 5.44 µM
CN(C)C1=NC[C@H](Cc2ccccc2)N1CCCC1CCCCC1 | 1.47 µM
COc1ccccc1CNc1nc(NCc2ccc(C(C)C)cc2)c2sccc2n1 | 6.81 µM
CCOc1ccc2nc3cc(NCc4ccc(OC)cc4)ccc3c(N)c2c1 | 6.69 µM
O=C(NNC(=O)c1cccc(S(=O)(=O)N2CCc3ccccc32)c1)c1ccccc1 | 1.52 µM
CCCCCCCN1C(Nc2ccccc2)=NC[C@@H]1Cc1ccccc1 | 4.82 µM
CC(C)Oc1ccc(S(=O)(=O)N2CCCCC2)cc1NC(=O)CN1CCCC1c1cccs1 (stereo not given) | 7.88 µM
COc1ccc(OC)c(NC(=O)c2nc(S(=O)(=O)Cc3ccccc3)ncc2Cl)c1 | 2.08 µM
Cc1ccc2nc(-c3ccc(O)c(O)c3)cn2c1 | 4.2 µM

Structure (SMILES) | AC50
CCC(=O)OCCNc1cc(Sc2nccn2C)c2nonc2c1[N+](=O)[O-] | 1.55 µM
CCCCC(=O)NC(c1ccc(N(C)C)cc1)c1ccc2cccnc2c1O (stereo not given) | 0.98 µM
C=CS(=O)(=O)c1sc(Cl)c(N2CCOCC2)c1[N+](=O)[O-] | 1.31 µM
COc1cc(NC(=O)Cn2ncc(Cl)c(Cl)c2=O)c(C)cc1[N+](=O)[O-] | 3.44 µM
O=S1(=O)C=C(Sc2nc3cc(Cl)ccc3o2)c2ccccc21 | < 0.26 µM
COc1ccc(-c2nc(NC(=O)C3CC(=O)N(c4ccc5c(c4)OCCO5)C3)sc2C)cc1 (stereo not given) | 5.24 µM
O=C(c1ccc(Cl)cc1)C1CCCN(Cc2cccc3ncccc23)C1 (stereo not given) | 4.52 µM
CCOC(=O)c1c2c(n(C)c1C)C(=O)C(=O)c1ccc(Br)cc1-2 | 1.01 µM
Cc1ccccc1CS(=O)(=O)c1nnc([C@H](Cc2ccccc2)NC(=O)OC(C)(C)C)o1 | 1.23 µM
CCCSc1nnc(CSc2nc3ccccc3s2)n1-c1ccccc1 | 7.05 µM
CC1=NOC(=O)/C1=C\c1ccc(-c2cc(Cl)ccc2Cl)o1 | 5.69 µM
Cc1ccc(NC(=O)C2CCN(S(=O)(=O)c3ccc4c(c3)NC(=O)C(C)S4)CC2)cc1Cl (stereo not given) | 2.83 µM
Cc1cc(C)c(O)c(-c2cc(C(=O)Nc3ccc(S(=O)(=O)N4CCOCC4)cc3)[nH]n2)c1 | 5.48 µM
Cc1nc2scc(C)n2c(=O)c1S(=O)(=O)Nc1ccc(N2CCOCC2)c(Cl)c1 | 1.67 µM
CCc1ccc(OCCNc2cc(N3CCNC(C)C3)ccc2[N+](=O)[O-])cc1 (stereo not given) | 15.6 µM
COCC1CCN(C(=O)c2cc(COc3ccc4ncccc4c3)on2)CC1 | 2.7 µM
CSC1SCC2C(=O)N(C)C(C(C)C)C(=O)OCC(NC(=O)c3cnc4ccccc4n3)C(=O)NC(C)C(=O)N(C)C1C(=O)N(C)C(C(C)C)C(=O)OCC(NC(=O)c1cnc3ccccc3n1)C(=O)NC(C)C(=O)N2C (stereo not given) | < 0.26 µM
CC[C@@H](C)[C@H](NC(=O)OC(C)(C)C)c1nnc(S(=O)(=O)Cc2cc(C)ccc2C)o1 | 5.77 µM
O=[N+]([O-])c1c(NCCO)cc(Sc2nc3ccccc3s2)c2nonc12 | 1.64 µM
O=C(Oc1c(CN2CCOCC2)cc(Cl)c2cccnc12)c1ccccc1Cl | 4.59 µM
COC(=O)C1CN(C#N)N(c2ccc(Cl)cc2)C12c1ccccc1-c1ccccc12 (stereo not given) | < 0.26 µM
COc1ccc(NC(=O)c2sc3ncnc(N4CCN(c5ccccn5)CC4)c3c2C)cc1Cl | 4.08 µM
COc1ccccc1-n1cc([C@@H]2C[C@H]3CN(c4ccccc4)C(=O)[C@]34CCCN24)cn1 | 1.46 µM
Cn1nc(C(C)(C)C)cc1C(=O)N1CCCCC1c1cc(C(=O)Nc2ccc(F)c(Cl)c2)no1 (stereo not given) | 3.04 µM
CC(C)CC(N)c1csc(NC(=O)c2cc(C(C)(C)C)nn2Cc2ccccc2)n1 (stereo not given) | 4.85 µM
